This is an account of results in PMC9532536 (Acta Pharmaceutica Sinica. B, 2022).

For this assay, the target named is GRP78 (78 kDa glucose-regulated protein) (Homo sapiens, UniProt P11021, K326A). Briefly: microscale thermophoresis. In kind it is binding. For orientation: MST reads how a fluorescent partner responds to local heating, with and without ligand.

Each structure is given as a SMILES string.

Usually Kd stands for the concentration at which binding is half-saturated. A high value points to a looser complex.

Sequence of GRP78 (78 kDa glucose-regulated protein) (P11021 19-654 K326A): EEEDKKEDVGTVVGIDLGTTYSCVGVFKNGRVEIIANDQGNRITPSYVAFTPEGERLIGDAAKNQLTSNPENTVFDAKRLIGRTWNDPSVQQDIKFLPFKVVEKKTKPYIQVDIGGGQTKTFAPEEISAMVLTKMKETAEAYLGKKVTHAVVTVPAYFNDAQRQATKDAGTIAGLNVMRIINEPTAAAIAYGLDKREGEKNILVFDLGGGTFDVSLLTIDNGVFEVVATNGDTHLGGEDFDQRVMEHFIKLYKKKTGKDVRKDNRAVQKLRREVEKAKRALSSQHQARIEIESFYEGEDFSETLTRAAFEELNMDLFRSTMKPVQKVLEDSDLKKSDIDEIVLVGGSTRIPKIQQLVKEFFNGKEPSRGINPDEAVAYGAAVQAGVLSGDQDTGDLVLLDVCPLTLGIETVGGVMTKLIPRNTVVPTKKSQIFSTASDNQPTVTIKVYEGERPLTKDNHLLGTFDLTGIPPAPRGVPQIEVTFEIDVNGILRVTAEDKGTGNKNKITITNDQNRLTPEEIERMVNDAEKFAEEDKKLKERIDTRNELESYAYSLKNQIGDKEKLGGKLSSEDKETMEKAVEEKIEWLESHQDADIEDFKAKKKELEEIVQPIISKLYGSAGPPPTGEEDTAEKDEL

The compound `CC(=O)OC(C)(C)/C=C/C(=O)[C@](C)(O)[C@H]1[C@H](O)C[C@@]2(C)[C@@H]3CC=C4[C@@H](C[C@H](O)C(=O)C4(C)C)[C@]3(C)C(=O)C[C@]12C` [CuB, cucurbitacin B] returned a Kd of 25.4 µM.
